Measured values reported in patent US20250290057A1, “LYTIC AGENT FOR ENTEROCOCCUS FAECALIS” (priority 2022, published 2025).
Converted amounts (≈) assume the structure as drawn. Like-named read-outs stand apart in the source and are kept apart here.

Assays:
E. faecalis isolates = experiment: Minimal inhibitory concentration of antibacterial agents, "Eiken" DP42 dry plate; format: cell-based, Enterococcus faecalis; settings: for MIC: Enterococcus faecalis
Protocol: (§1) The sensitivity to an antibacterial agent for each of the above-described 30 Enterococcus bacterial strains was invenstigated. Specifically, the bacterial strains prepared in 1 McFarland standard with physiological saline were diluted 500-fold with a BHI culture medium, and then aerobically cultured in solid-phase wells of an “Eiken” DP42 dry plate (Eiken Chemical Co., Ltd., Tokyo, Japan) for 24 hours.
(§2) The minimal inhibitory concentration of any one of the antibacterial agents, i.e., daptomycin (DAP), vancomycin (VCM), teicoplanin (TEIC), and linezolid (LZD), was determined in accordance with the instruction of the product. […] The results obtained by testing resistance to the antibacterial agents of the E. faecalis strains (11 strains) are shown in Table 1 below.

E. faecium isolates = experiment: as above; format: cell-based, Enterococcus faecium; settings: all E. faecium (19 strains)
Protocol: as §1, §2

[1] = test system: E. faecalis strains JCM5803, JCM8902; experiment: Vancomycin resistance evaluation (method of Example 2 (2)); format: cell-based; parameters: key: resistant: +; nonresistant: −
Protocol: as §1, §2
(§3) The hemolytic activity of each of the bacterial strains was measured with a hemolysis assay using a Nissui Plate Horse Blood Agar medium. The cytolysin-related gene was detected with PCR. The vancomycin resistance was evaluated using the method described in (2) in Example 2. The vanA gene and the vanB gene that are vancomycin-resistant genes were detected with PCR. Furthermore, each bacterial strain was aerobically cultured in a BHI culture medium, and centrifuged at 300×g for 5 minutes for collection. The cell pellets were washed, and resuspended in a HiTrap buffer. The phage-derived endolysin was added at a final concentration of 50 μg/mL to the cell resuspension liquid. The resulting suspension was incubated at 37° C., and the lytic activity was measured, using the presence or absence of a bacterial lump as an index.

[2] = test system: E. faecium strain JCM5804; experiment: as above; format: cell-based; parameters: key: resistant: +; nonresistant: −
Protocol: as §1, §2, §3

## CN[C@H](CC(C)C)C(=O)N[C@H]1C(=O)N[C@@H](CC(N)=O)C(=O)N[C@H]2C(=O)N[C@H]3C(=O)N[C@H](C(=O)N[C@H](C(=O)O)c4cc(O)cc(O)c4-c4cc3ccc4O)[C@H](O)c3ccc(c(Cl)c3)Oc3cc2cc(c3O[C@@H]2O[C@H](CO)[C@@H](O)[C@H](O)[C@H]2O[C@H]2C[C@](C)(N)[C@H](O)[C@H](C)O2)Oc2ccc(cc2Cl)[C@H]1O [vancomycin]
E. faecalis isolates; read-out: Minimal inhibitory concentration, E. faecalis strain OCU009_35_4
  MIC: 2 µg/mL (≈ 1.38 µM)
E. faecalis isolates; read-out: Minimal inhibitory concentration, E. faecalis strain OCU009_35_10
  MIC: 4 µg/mL (≈ 2.76 µM)
E. faecalis isolates; read-out: Minimal inhibitory concentration, E. faecalis strain OCU015_56_6
  MIC: 2 µg/mL (≈ 1.38 µM)
E. faecalis isolates; read-out: Minimal inhibitory concentration, E. faecalis strain OCU015_56_7
  MIC: 2 µg/mL (≈ 1.38 µM)
E. faecalis isolates; read-out: Minimal inhibitory concentration, E. faecalis strain OCU031_7_1
  MIC: 4 µg/mL (≈ 2.76 µM)
E. faecalis isolates; read-out: Minimal inhibitory concentration, E. faecalis strain OCU031_7_9
  MIC: 2 µg/mL (≈ 1.38 µM)
E. faecalis isolates; read-out: Minimal inhibitory concentration, E. faecalis strain OCU031_14_5
  MIC: 4 µg/mL (≈ 2.76 µM)
E. faecalis isolates; read-out: Minimal inhibitory concentration, E. faecalis strain OCU031_14_8
  MIC: 2 µg/mL (≈ 1.38 µM)
E. faecalis isolates; read-out: Minimal inhibitory concentration, E. faecalis strain OCU031_pre_6
  MIC: 2 µg/mL (≈ 1.38 µM)
E. faecalis isolates; read-out: Minimal inhibitory concentration, E. faecalis strain OCU031_pre_7
  MIC: 2 µg/mL (≈ 1.38 µM)
E. faecalis isolates; read-out: Minimal inhibitory concentration, E. faecalis strain OCU031_pre_10
  MIC: 2 µg/mL (≈ 1.38 µM)
E. faecalis isolates; all E. faecalis strains (11 strains)
  Sensitivity of strains to antibacterial agent: exhibited sensitivity
E. faecium isolates
  Sensitivity of strains to antibacterial agent: exhibited sensitivity
[1]; strain JCM5803
  Vancomycin-resistance: −
[1]; strain JCM8902
  Vancomycin-resistance: +
[2]
  Vancomycin-resistance: −
